Laboratory results published in ChEMBL document CHEMBL4385643, “Design of a brain-penetrant CDK4/6 inhibitor for glioblastoma” (Bioorg Med Chem Lett, 2019).
pKi: −log10 of the molar value.

Experiments:
in vivo [1] = conditions: CD-1, mouse, brain/plasma, iv, 1 mg/kg
Description: Plasma to brain permeability coefficient, Kp of the compound in CD-1 mouse at 1.0 mg/kg, iv measured at 1 hr post dose by LC/MS/MS analysis

[2] = target: Dual specificity protein kinase CLK1 (Homo sapiens) (UniProt P49759); assay: Inhibition of recombinant human GST-tagged CLK1 catalytic domain (129 to 484 residues) expressed in Escherichia coli expression system at 0.1 uM using serine/threonine-9 peptide as substrate incubated for 60 mins by Z'-LYTE assay relative to control
[3] = target: Homeodomain-interacting protein kinase 2 (Homo sapiens) (UniProt Q9H2X6); assay: Inhibition of recombinant full length human GST-tagged HIPK2 expressed in baculovirus expression system at 0.1 uM using serine/threonine-9 peptide as substrate incubated for 60 mins by Z'-LYTE assay relative to control
in vivo [4] = conditions: CD-1, mouse, plasma, po, 25 mg/kg
Description: Protein binding in CD-1 mouse plasma assessed as fraction unbound at 25 mg/kg, po measured up to 6 hours by LC-MS/MS analysis

in vivo [5] = conditions: CD-1, mouse, iv, 1 mg/kg
Description: Half life in CD-1 mouse at 1.0 mg/kg, iv measured upto 6 hours by LC-MS/MS analysis

in vivo [6] = conditions: CD-1, mouse, po, 25 mg/kg
Description: Half life in CD-1 mouse at 25 mg/kg, po measured upto 6 hours by LC-MS/MS analysis

[7] = target: Dual specificity tyrosine-phosphorylation-regulated kinase 3 (Homo sapiens) (UniProt O43781); assay: Inhibition of recombinant full length human GST-tagged DYRK3 expressed in baculovirus expression system at 0.1 uM using serine/threonine-9 peptide as substrate incubated for 60 mins by Z'-LYTE assay relative to control
[8] = Plasma to brain permeability coefficient, Kp of the unbound compound in CD-1 mouse at 1.0 mg/kg, iv measured at 6 hrs post dose by LC/MS/MS analysis; type: ADME, organism-based; conditions: read-out: K(p,uu,brain)
CDK1/Cyclin A = CDK1/Cyclin A (Homo sapiens, UniProt P06493)
Description: Inhibition of human recombinant full length GST-tagged CDK1/Cyclin A2 expressed in sf9 insect cells assessed as inhibition constant using Ulight-4E-BP1 as substrate preincubated for 30 mins followed by substrate addition and incubated for 90 mins by TR-FRET assay

[9] = target: Glycogen synthase kinase-3 alpha (Homo sapiens) (UniProt P49840); assay: Inhibition of recombinant full length human GST-tagged GSK3alpha expressed in baculovirus expression system at 0.1 uM using serine/threonine-9 peptide as substrate incubated for 60 mins by Z'-LYTE assay relative to control
[10] = target: Dual specificity protein kinase CLK2 (Homo sapiens) (UniProt P49760); assay: Inhibition of recombinant human GST-tagged CLK2 catalytic domain (137 to 498 residues) expressed in Baculovirus expression system at 0.1 uM using serine/threonine-6 peptide as substrate incubated for 60 mins by Z'-LYTE assay relative to control
in vivo [11] = conditions: CD-1, mouse, iv, 1 mg/kg; remark: listed apart in the source
Description: Volume of distribution at steady state in CD-1 mouse at 1.0 mg/kg, iv measured upto 6 hours by LC-MS/MS analysis

[12] = Unbound brain to plasma ratio in Sprague-Dawley rat at 30 mg/kg, po after 48 hrs by LC-MS/MS analysis; type: ADME, organism-based; conditions: read-out: K(p,uu,brain)
[13] = target: Dual specificity mitogen-activated protein kinase kinase 3 (Homo sapiens) (UniProt P46734); assay: Inhibition of recombinant full length human GST-tagged MEK3 expressed in baculovirus expression system at 0.1 uM using serine/threonine-3 peptide as substrate incubated for 60 mins by Z'-LYTE assay relative to control
Sequence of Dual specificity mitogen-activated protein kinase kinase 3 (Homo sapiens) (P46734 whole entry): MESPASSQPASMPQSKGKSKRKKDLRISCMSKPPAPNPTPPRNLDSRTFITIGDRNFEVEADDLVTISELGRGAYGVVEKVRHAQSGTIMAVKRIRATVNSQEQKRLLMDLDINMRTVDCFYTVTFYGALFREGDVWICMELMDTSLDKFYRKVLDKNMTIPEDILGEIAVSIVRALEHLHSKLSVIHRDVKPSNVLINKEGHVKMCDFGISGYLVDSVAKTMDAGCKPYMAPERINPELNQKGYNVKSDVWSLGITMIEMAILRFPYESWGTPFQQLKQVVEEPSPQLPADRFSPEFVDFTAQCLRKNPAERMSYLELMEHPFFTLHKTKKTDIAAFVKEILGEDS

Sequence of Dual specificity protein kinase CLK2 (Homo sapiens) (P49760 whole entry, looked up, the tested form may be a part): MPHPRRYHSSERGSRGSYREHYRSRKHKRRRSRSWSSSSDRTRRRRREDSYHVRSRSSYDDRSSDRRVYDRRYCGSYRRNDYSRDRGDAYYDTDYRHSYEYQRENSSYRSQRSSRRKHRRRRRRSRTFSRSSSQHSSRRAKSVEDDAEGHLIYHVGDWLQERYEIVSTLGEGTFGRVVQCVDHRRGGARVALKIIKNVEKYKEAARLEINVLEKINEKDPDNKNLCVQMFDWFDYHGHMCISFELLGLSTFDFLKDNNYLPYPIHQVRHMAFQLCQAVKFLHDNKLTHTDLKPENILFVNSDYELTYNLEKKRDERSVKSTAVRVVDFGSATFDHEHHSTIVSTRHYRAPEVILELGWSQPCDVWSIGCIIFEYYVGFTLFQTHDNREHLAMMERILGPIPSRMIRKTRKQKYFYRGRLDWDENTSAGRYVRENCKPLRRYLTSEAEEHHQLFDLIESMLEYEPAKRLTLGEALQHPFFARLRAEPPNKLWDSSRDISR
Sequence of CDK1/Cyclin A (P06493 whole entry): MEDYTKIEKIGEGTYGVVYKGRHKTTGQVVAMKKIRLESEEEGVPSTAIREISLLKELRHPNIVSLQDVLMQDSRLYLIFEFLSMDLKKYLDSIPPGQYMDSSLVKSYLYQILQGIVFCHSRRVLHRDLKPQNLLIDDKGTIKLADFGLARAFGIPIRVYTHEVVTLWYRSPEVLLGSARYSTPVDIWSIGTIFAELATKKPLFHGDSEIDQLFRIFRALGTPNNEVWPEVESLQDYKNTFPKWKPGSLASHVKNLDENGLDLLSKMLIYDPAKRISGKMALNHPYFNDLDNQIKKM
Sequence of CDK1/Cyclin A (P20248 whole entry, further chain): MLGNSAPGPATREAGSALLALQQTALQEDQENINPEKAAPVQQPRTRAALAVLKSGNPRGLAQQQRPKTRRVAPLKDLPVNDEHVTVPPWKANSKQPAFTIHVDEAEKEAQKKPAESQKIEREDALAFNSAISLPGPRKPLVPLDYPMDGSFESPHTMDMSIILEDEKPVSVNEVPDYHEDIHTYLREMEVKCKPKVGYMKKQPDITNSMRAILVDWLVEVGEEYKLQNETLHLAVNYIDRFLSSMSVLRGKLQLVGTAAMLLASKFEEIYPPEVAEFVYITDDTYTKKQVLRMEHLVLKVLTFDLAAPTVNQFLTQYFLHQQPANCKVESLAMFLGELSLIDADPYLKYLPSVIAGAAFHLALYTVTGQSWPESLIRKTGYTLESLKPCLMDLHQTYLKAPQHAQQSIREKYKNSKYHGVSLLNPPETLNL
Sequence of Homeodomain-interacting protein kinase 2 (Homo sapiens) (Q9H2X6 whole entry, looked up): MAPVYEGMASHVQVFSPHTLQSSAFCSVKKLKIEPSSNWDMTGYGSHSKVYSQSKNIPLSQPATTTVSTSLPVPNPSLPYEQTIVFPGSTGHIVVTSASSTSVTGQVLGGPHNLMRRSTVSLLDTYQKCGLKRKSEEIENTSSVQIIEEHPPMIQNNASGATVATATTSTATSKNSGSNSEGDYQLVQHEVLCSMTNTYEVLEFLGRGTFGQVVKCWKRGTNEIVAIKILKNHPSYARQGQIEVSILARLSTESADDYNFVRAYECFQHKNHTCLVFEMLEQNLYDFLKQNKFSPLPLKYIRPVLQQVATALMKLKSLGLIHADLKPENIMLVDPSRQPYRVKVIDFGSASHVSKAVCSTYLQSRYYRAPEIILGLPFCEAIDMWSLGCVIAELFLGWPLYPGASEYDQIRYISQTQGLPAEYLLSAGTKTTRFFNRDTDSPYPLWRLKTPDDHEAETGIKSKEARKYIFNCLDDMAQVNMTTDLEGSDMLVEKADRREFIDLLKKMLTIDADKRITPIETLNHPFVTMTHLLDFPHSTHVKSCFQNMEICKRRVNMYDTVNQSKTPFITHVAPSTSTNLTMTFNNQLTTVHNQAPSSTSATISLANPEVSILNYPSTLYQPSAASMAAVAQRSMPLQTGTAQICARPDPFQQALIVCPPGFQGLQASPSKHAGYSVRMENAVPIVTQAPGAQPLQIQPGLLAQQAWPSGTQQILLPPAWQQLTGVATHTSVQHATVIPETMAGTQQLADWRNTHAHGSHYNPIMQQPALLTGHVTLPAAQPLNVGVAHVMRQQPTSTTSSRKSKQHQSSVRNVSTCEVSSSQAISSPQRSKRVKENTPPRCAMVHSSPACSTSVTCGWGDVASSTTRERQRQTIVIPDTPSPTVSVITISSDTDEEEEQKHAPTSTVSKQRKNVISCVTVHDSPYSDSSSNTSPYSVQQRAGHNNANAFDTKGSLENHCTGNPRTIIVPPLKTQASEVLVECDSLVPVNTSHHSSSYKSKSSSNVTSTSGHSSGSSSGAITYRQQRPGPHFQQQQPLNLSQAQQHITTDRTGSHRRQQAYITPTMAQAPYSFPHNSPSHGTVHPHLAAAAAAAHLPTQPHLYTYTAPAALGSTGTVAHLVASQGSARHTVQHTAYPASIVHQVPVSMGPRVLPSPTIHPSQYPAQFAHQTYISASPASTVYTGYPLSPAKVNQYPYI
Sequence of Dual specificity tyrosine-phosphorylation-regulated kinase 3 (Homo sapiens) (O43781 whole entry): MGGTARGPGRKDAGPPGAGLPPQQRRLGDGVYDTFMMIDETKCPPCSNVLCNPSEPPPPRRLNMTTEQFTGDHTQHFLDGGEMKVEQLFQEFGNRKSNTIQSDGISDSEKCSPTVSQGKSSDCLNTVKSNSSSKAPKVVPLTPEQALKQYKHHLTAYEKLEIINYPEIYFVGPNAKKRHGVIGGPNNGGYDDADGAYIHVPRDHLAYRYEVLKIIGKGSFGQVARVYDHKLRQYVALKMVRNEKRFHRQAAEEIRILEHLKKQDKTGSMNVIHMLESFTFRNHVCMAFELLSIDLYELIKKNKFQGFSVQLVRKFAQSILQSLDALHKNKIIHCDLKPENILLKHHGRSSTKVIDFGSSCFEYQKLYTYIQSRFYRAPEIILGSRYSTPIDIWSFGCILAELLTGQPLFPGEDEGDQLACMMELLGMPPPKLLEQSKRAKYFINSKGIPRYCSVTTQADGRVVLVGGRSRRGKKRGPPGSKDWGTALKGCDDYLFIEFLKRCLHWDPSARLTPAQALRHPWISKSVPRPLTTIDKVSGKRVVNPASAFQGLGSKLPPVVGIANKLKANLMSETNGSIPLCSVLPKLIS
Sequence of Dual specificity protein kinase CLK1 (Homo sapiens) (P49759 whole entry, looked up, the tested form may be a part): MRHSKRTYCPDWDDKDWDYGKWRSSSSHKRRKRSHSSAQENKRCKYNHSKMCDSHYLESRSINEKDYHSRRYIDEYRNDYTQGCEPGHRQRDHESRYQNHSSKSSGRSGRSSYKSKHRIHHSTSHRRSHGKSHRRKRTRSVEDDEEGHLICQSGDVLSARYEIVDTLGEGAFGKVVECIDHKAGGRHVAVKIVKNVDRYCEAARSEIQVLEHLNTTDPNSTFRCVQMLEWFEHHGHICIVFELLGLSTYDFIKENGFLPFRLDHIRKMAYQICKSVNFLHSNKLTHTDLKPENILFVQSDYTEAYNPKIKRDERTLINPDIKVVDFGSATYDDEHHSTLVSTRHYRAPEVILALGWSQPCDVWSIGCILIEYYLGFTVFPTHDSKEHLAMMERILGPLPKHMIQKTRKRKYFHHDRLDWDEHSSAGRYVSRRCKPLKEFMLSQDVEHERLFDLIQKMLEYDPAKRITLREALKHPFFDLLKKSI
Sequence of Glycogen synthase kinase-3 alpha (Homo sapiens) (P49840 2-483 limits assumed): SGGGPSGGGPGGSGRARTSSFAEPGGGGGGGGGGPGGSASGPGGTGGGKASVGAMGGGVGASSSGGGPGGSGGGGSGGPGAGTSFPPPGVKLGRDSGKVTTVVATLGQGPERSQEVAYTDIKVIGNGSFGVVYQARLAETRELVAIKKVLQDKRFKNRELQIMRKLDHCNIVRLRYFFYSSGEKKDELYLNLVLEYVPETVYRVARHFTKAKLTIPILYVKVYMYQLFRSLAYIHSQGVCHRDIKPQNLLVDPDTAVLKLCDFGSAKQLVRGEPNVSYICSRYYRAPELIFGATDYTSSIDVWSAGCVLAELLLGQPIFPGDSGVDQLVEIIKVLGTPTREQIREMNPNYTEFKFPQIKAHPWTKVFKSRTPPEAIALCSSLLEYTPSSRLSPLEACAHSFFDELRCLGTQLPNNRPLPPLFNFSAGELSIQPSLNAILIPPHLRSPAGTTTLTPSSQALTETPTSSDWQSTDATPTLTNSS

**Q.** What does the source list for `CCN1CC2(C1)CN(c1ccc(Nc3ncc(F)c(-c4cnn5c4[C@H](C)CCCC5)n3)nc1)C2`?
**A.** Kp at 1 h (in vivo [1]): 4.8; inhibition [2]: 77.5%; inhibition [3]: 26%; fraction unbound at 6 h (in vivo [4]): 0.073; half-life at 6 h (in vivo [5]): 0.9 h; half-life at 6 h (in vivo [6]): 2.5 h; inhibition [7]: 34%; Kp uu at 6 h [8]: 0.28; pKi (CDK1/Cyclin A): 6.96; inhibition [9]: 33%; inhibition [10]: 98%; Vd at 6 h (in vivo [11]): 6.2 L/kg

**Q.** Which Kp uu at 48 h [12] does the source give for `CCN1CCN(Cc2ccc(Nc3ncc(F)c(-c4cc(F)c5nc(C)n(C(C)C)c5c4)n3)nc2)CC1` [ABEMACICLIB] here?
**A.** The Kp uu at 48 h was 0.11.

**Q.** What about the inhibition [13] of the same compound?
**A.** The inhibition was 33.2%.
